Assay results taken from publication PMC7824535, “Inhibitory Effect of Antidesma bunius Fruit Extract on Carbohydrate Digestive Enzymes Activity and Protein Glycation In Vitro” (Antioxidants, 2020).
≈ marks a conversion by molar mass, not a printed value.

Target: T1, intestinal maltase
T1 construct: gene Mgam; native, supernatant of rat intestinal acetone powder, not purified; maltase activity of several enzymes
Experiment: glucose release by glucose oxidase method, […] nm
Format: biochemical
Conditions: maltose substrate (86 mM stock, 30 µL), 0.1 M phosphate buffer pH 6.9, 37 °C, 30 min; crude rat intestinal extract

IC50 Values / Maltase: 0.89 ± 0.07 µg/mL (≈ 1.38 µM)
Compound: C[C@H]1O[C@H](O[C@H]2[C@H](O)[C@@H](O)[C@@H](O[C@H]3[C@H](O)[C@@H](O)C(O)O[C@@H]3CO)O[C@@H]2CO)[C@H](O)[C@@H](O)[C@@H]1N[C@H]1C=C(CO)[C@@H](O)[C@H](O)[C@H]1O (stereo partly shown) [Acarbose]
